From US9533952B2, “N-prop-2-ynyl carboxamide derivatives and their use as TRPA1 antagonists” (Orion Corporation, priority 2012, dated 2017)

Target: TRPA1 (Homo sapiens, UniProt O75762)
Experiment: Determination of TRPA1 activity in vitro (TRPA1 antagonism in vitro)
Format: cell-based
Conditions: procedure of Wei et al., Anesthesiology 111 (2009) 147-154

TRPA1, sequence (O75762 whole entry): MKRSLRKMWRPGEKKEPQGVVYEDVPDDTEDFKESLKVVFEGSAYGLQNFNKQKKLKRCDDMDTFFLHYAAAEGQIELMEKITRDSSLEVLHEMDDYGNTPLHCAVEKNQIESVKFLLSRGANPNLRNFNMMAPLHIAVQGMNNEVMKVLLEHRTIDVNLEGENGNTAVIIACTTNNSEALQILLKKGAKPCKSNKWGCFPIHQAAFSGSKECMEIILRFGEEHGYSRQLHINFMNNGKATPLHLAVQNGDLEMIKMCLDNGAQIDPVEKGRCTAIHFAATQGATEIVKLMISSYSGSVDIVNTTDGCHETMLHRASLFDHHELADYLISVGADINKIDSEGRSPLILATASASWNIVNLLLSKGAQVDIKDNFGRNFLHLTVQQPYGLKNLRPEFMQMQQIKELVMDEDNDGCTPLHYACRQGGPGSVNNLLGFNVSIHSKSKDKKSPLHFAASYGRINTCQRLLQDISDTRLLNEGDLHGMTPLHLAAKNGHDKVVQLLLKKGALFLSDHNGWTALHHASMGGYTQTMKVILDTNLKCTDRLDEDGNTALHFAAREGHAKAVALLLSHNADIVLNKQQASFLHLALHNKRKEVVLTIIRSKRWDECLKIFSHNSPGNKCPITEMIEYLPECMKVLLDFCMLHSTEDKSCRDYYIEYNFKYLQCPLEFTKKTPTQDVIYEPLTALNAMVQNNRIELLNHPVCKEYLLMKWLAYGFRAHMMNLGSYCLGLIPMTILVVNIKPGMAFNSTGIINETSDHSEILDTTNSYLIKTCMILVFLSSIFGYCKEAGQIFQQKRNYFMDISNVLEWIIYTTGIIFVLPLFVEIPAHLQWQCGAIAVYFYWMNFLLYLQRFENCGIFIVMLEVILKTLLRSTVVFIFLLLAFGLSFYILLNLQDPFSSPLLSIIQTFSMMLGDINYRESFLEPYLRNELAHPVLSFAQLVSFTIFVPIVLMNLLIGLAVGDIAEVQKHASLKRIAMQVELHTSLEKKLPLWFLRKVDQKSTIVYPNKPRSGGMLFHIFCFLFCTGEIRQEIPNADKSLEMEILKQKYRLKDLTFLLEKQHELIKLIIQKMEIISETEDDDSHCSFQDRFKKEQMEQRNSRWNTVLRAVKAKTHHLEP

| SMILES | IC50 [nM] |
| --- | --- |
| C#CC(C)(C)NC(=O)c1cccnc1Nc1cc(Cl)cc(OC)c1 [Example 167, 2-(3-Chloro-5-methoxyphenylamino)-N-(2-methylbut-3-yn-2-yl)nicotinamide] | 3200 |
| C#CC(C)(CC)NC(=O)c1cccnc1Nc1cc(Cl)cc(OC)c1 (centres unmarked) [Example 168, 2-(3-Chloro-5-methoxyphenylamino)-N-(3-methylpent-1-yn-3-yl)nicotinamide] | 800 |
| C#CC(C)(C)NC(=O)c1cccnc1Nc1cccc(OC)c1F [Example 169, 2-(2-Fluoro-3-methoxyphenylamino)-N-(2-methylbut-3-yn-2-yl)nicotinamide] | 34800 |
| C#CC(C)(CC)NC(=O)c1cccnc1Nc1cccc(OC)c1F (centres unmarked) [Example 170, 2-(2-Fluoro-3-methoxyphenylamino)-N-(3-methylpent-1-yn-3-yl)nicotinamide] | 4900 |
| C#CC(C)(CC)NC(=O)c1cc(F)cnc1Nc1ccc(F)cc1 (centres unmarked) [Example 171, 5-Fluoro-2-(4-fluorophenylamino)-N-(3-methylpent-1-yn-3-yl)nicotinamide] | 300 |
| C#CC(C)(CC)NC(=O)c1cc(F)cnc1Nc1ccccc1 (centres unmarked) [Example 172, 5-Fluoro-N-(3-methylpent-1-yn-3-yl)-2-(phenylamino)nicotinamide] | 300 |
| C#CC(C)(C)NC(=O)c1cccnc1Nc1ccc(F)cc1F [Example 173, 2-(2,4-Difluorophenylamino)-N-(2-methylbut-3-yn-2-yl)nicotinamide] | 1900 |
| C#CC(C)(CC)NC(=O)c1cccnc1Nc1ccc(F)cc1F (centres unmarked) [Example 174, 2-(2,4-Difluorophenylamino)-N-(3-methylpent-1-yn-3-yl)nicotinamide] | 400 |
| C#CC(C)(C)NC(=O)c1cc(F)cnc1Nc1cccc(F)c1 [Example 175, 5-Fluoro-2-(3-fluorophenylamino)-N-(2-methylbut-3-yn-2-yl)nicotinamide] | 900 |
| C#CC(C)(CC)NC(=O)c1cc(F)cnc1Nc1cccc(F)c1 (centres unmarked) [Example 176, 5-Fluoro-2-(3-fluorophenylamino)-N-(3-methylpent-1-yn-3-yl)nicotinamide] | 300 |
| C#CC(C)(CC)NC(=O)c1cc(Cl)cnc1NC1CC(F)(F)C1 (centres unmarked) [Example 177, 5-Chloro-2-(3,3-difluorocyclobutylamino)-N-(3-methylpent-1-yn-3-yl)nicotinamide] | 300 |
| C#CC(C)(CC)NC(=O)c1cc(F)cnc1Nc1cccc(C#N)c1 (centres unmarked) [Example 178, 2-(3-Cyanophenylamino)-5-fluoro-N-(3-methylpent-1-yn-3-yl)nicotinamide] | 900 |
| C#CC(C)(C)NC(=O)c1cccnc1Nc1cc(OC)ccc1F [Example 179, 2-(2-Fluoro-5-methoxyphenylamino)-N-(2-methylbut-3-yn-2-yl)nicotinamide] | 10800 |
| C#CC(C)(CC)NC(=O)c1cccnc1Nc1cc(OC)ccc1F (centres unmarked) [Example 180, 2-(2-Fluoro-5-methoxyphenylamino)-N-(3-methylpent-1-yn-3-yl)nicotinamide] | 1400 |
| C#CC(C)(C)NC(=O)c1cccnc1Nc1ccc(F)c(C#N)c1 [Example 181, 2-(3-Cyano-4-fluorophenylamino)-N-(2-methylbut-3-yn-2-yl)nicotinamide] | 2700 |
| C#CC(C)(CC)NC(=O)c1cccnc1Nc1ccc(F)c(C#N)c1 (centres unmarked) [Example 182, 2-(3-Cyano-4-fluorophenylamino)-N-(3-methylpent-1-yn-3-yl)nicotinamide] | 500 |

| SMILES | IC50 [nM] |
| --- | --- |
| C#CC(C)(C)NC(=O)c1cccnc1Nc1cc(F)cc(C#N)c1 [Example 183, 2-(3-Cyano-5-fluorophenylamino)-N-(2-methylbut-3-yn-2-yl)nicotinamide] | 1400 |
| C#CC(C)(CC)NC(=O)c1cccnc1Nc1cccc(F)c1 (centres unmarked) [Example 184, 2-(3-Fluorophenylamino)-N-(3-methylpent-1-yn-3-yl)nicotinamide] | 200 |
| C#CC(C)(CC)NC(=O)c1cccnc1Nc1ccccc1F (centres unmarked) [Example 185, 2-(2-Fluorophenylamino)-N-(3-methylpent-1-yn-3-yl)nicotinamide] | 500 |
| C#CC(C)(CC)NC(=O)c1cccnc1Nc1cc(F)cc(F)c1 (centres unmarked) [Example 186, 2-(3,5-Difluorophenylamino)-N-(3-methylpent-1-yn-3-yl)nicotinamide] | 200 |
| C#CC(C)(CC)NC(=O)c1cccnc1Nc1cc(F)cc(C#N)c1 (centres unmarked) [Example 187, 2-(3-Cyano-5-fluorophenylamino)-N-(3-methylpent-1-yn-3-yl)nicotinamide] | 400 |
| C#CC(C)(C)NC(=O)c1cccnc1Nc1cc(OC)ccc1Cl [Example 188, 2-(2-Chloro-5-methoxyphenylamino)-N-(2-methylbut-3-yn-2-yl)nicotinamide] | 16700 |
| C#CC(C)(CC)NC(=O)c1cccnc1Nc1cc(OC)ccc1Cl (centres unmarked) [Example 189, 2-(2-Chloro-5-methoxyphenylamino)-N-(3-methylpent-1-yn-3-yl)nicotinamide] | 3000 |
| C#CC(C)(CC)NC(=O)c1cccnc1Nc1ccccc1 (centres unmarked) [Example 190, N-(3-Methylpent-1-yn-3-yl)-2-(phenylamino)nicotinamide] | 400 |
| C#CC(C)(CC)NC(=O)c1cccnc1NC1CCC(F)(F)CC1 (centres unmarked) [Example 191, 2-(4,4-Difluorocyclohexylamino)-N-(3-methylpent-1-yn-3-yl)nicotinamide] | 600 |
| C#CC(C)(CC)NC(=O)c1cccnc1Nc1ccc(OC)c(Cl)c1 (centres unmarked) [Example 192, 2-(3-Chloro-4-methoxyphenylamino)-N-(3-methylpent-1-yn-3-yl)nicotinamide] | 700 |
| C#CC(C)(C)NC(=O)c1cccnc1Nc1ccc(F)c(OC)c1 [Example 193, 2-(4-Fluoro-3-methoxyphenylamino)-N-(2-methylbut-3-yn-2-yl)nicotinamide] | 11100 |
| C#CC(C)(CC)NC(=O)c1cccnc1Nc1ccc(F)c(OC)c1 (centres unmarked) [Example 194, 2-(4-Fluoro-3-methoxyphenylamino)-N-(3-methylpent-1-yn-3-yl)nicotinamide] | 1600 |
| C#CC(C)(CC)NC(=O)c1cccnc1Nc1ccc(F)c(F)c1 (centres unmarked) [Example 195, 2-(3,4-Difluorophenylamino)-N-(3-methylpent-1-yn-3-yl)nicotinamide] | 100 |
| C#CC(C)(C)NC(=O)c1cccnc1Nc1ccc(Cl)c(OC)c1 [Example 196, 2-(4-Chloro-3-methoxyphenylamino)-N-(2-methylbut-3-yn-2-yl)nicotinamide] | 3200 |
| C#CC(C)(CC)NC(=O)c1cccnc1Nc1ccc(Cl)c(OC)c1 (centres unmarked) [Example 197, 2-(4-Chloro-3-methoxyphenylamino)-N-(3-methylpent-1-yn-3-yl)nicotinamide] | 700 |
| C#CC(C)(CC)NC(=O)c1cccnc1Nc1ccc(F)cc1 (centres unmarked) [Example 198, 2-(4-Fluorophenylamino)-N-(3-methylpent-1-yn-3-yl)nicotinamide] | 200 |
